Results from patent US10124035B2, “DISC-1 pathway activators in the control of neurogenesis” (Massachusetts Institute of Technology, priority 2008, dated 2018).
“Also recorded” adds a separate entry of the source.

Experiments:
[1] = system: DISC1 shRNA injected mice; assay: Open Field test (hyperlocomotion in response to novelty); assay type: in vivo, mouse; conditions: for hyperlocomotion/hyperactivity in novel open field: DISC1 shRNA injected mice, SB-216763 2 mg/kg i.p.
Protocol: (§1) Behavioral abnormalities in DISC1 knockdown mice. a. DISC1 knockdown in adult dentate gyms caused increased hyperactivity in the Open Field Test. b and c. DISC1 knockdown in adult dentate gyms caused depressive-like behavior in the Forced Swimming test and the Novelty Suppression Feeding experiment. b. Forced Swimming Test Mice were put in the beaker with water for 6 minutes and counted the last 4 minutes for the time of immobility. c. Novelty Suppression Feeding Test. Mice were restricted with food for 48 hours and tested for the motivation to eat food. Mice were tested the latency for first bite, the time they spent on food, and the time they ate during 5 minutes. d. […] Mice were injected and allowed to recover for 2 weeks, then treated with the GDK3beta inhibitor SB216763 at 2 mg/kg/day for two weeks, after that the behavioral test was performed.
(§2) Alterations in neurogenesis are implicated in the development of depression and other abnormal behaviors. To examine the behavioral consequences of disrupting the DICS1/GSK3β pathway, we silenced DISC1 expression in the adult dentate gyms and evaluated behavioral consequences. Four weeks after the injection of control or DISC1 shRNA-1 lentivirus, mice were treated with vehicle or SB-216763 (2 mg/kg i.p.) every other day for 10 days. […] DISC1 shRNA injected mice traveled a greater distance and spent more time moving in a novel open field than control mice (FIG. 17A). These behaviors were normalized by SB-216763 treatment. We further tested whether DISC1 loss-of-function had consequences on depression-like behavior in the forced swim test. […] Importantly, swimming velocity was unchanged. […] Thus, increased GSK3β activity caused by DISC1 loss-of-function is associated with schizophrenia- and depression-like behaviors.

[2] = system: DISC1 shRNA infected mice; assay: Forced swim test; assay type: in vivo, mouse
Protocol: as §1
Alterations in neurogenesis are implicated in the development of depression and other abnormal behaviors. To examine the behavioral consequences of disrupting the DICS1/GSK3β pathway, we silenced DISC1 expression in the adult dentate gyms and evaluated behavioral consequences. Four weeks after the injection of control or DISC1 shRNA-1 lentivirus, mice were treated with vehicle or SB-216763 (2 mg/kg i.p.) every other day for 10 days. […]

[3] = system: adult progenitor proliferation in dentate gyrus; assay: Adult progenitor proliferation in dentate gyrus (BrdU) after lentivirus injection; assay type: in vivo
Source text: Cell positioning and BrdU incorporation defects caused by DISC1 loss-of-function are rescued by human WT-DISC1 or SA-β-catenin. The percentage of GFP positive cells in the SVZ/VZ or CP is shown (n=5, **, p<0.01; ***, p<0.005). Scale bar=20 μm. b. The reduction in mitotic index caused by DISC1 knockdown in embryonic brains is rescued by human WT-DISC1 or SA-β-catenin. Arrows indicate GFP and pH3 double positive cells. Shown is the percentage of GFP and pH3 double positive cells in total GFP positive cells (n=4, *, p<0.05; ***, p<0.005). Scale bar=20 μm. c. Control or DISC1 shRNA-1 lentivirus was stereotactically injected into adult dentate gyms. After 4 weeks of recovery, mice received SB216763 (2 mg/kg) every other day for 2 weeks and BrdU (100 mg/kg) daily for 7 days. The GFP signal represents lentiviral infected cells in dentate gyms. Scale bar=50 μm. d. […] The percentage of GFP and BrdU double positive cells is shown (n=5, *, p<0.05; **, p<0.01; ***, p<0.005; ns, not significant). Scale bar=10 μm.
• Mice. Swiss Webster pregnant female mice were purchased from Taconic (Hudson, N.Y.). • Cell Culture. AHPs were kindly provided by Dr. Gage (Lie, D. C. et al. Wnt signaling to regulates adult hippocampal neurogenesis. Nature 437, 1370-5 (2005)) and cultured under conditions described previously (Palmer, T. D., Takahashi, J. & Gage, F. H. The adult rat hippocampus contains primordial neural stem cells. Mol Cell Neurosci 8, 389-404 (1997)). Primary neural progenitors were isolated from E14 mouse embryos and cultured as described previously (Sanada, K. & Tsai, L. H. G protein betagamma subunits and AGS3 control spindle orientation and asymmetric cell fate of cerebral cortical progenitors. Cell 122, 119-31 (2005)). N2a and 293T cells were cultured in DMEM medium containing 10% FBS, L-glutamine, and penicillin/streptomycin. Wnt3a expressing L cells and untransfected L cells were obtained from ATCC (Manassas, Va.). Wnt3a conditional medium was produced according to the ATCC protocol. To induce AHP differentiation, FGF2 was removed from the culture medium and 1 μM retinoic acid/1% FBS was added to the medium for 4 days. • Reagents. Recombinant Wnt3a protein was obtained from Chemicon (Rosemont, Ill.). FGF2 was obtained from PeproTech (Rocky Hill, N.J.). Recombinant GST-GSK3β was obtained from Active Motif (Carlsbad, Calif.). Recombinant GST-β-catenin and GST-axin were obtained from Millipore (Billerica, Mass.). The GSK313 inhibitor, SB-216763, AR-A104418 and His-GSK3β, were obtained from Sigma-Aldrich (Sigma-Aldrich, St. Louis, Mo.). L803-MTS was obtained from Calbiochem (San Diego, Calif.). GST-AKT1 was obtained from Cell Signaling (Beverly, Mass.). […]

[4] = system: DISC1 shRNA infected mice; assay: Elevated plus-maze; assay type: in vivo, mouse; conditions: lentivirus in adult dentate gyrus
Protocol: as §2

[5] = lentivirus in adult dentate gyrus, compared to control mice

| Molecule | hyperlocomotion/hyperactivity in novel open field ([1]; 2 mg/kg) | hyperlocomotion/hyperactivity in novel open field ([1]; listed as SB216763, 2 mg/kg) | immobility in forced swim test ([2]; DISC1 shRNA infected mice, SB-216763 2 mg/kg i.p.) | BrdU positive cells in dentate gyrus ([3]; DISC1 shRNA-1 infected mice, SB216763 2 mg/kg for 2 weeks, 2 mg/kg) | number of BrdU positive cells in dentate gyrus ([3]; mice infected with control virus, SB216763 2 mg/kg for 2 weeks) | anxiety in elevated plus-maze [4] | locomotion in novel open field [1, 5] | immobility in forced swim test [2, 5] | active caspase 3 labeling in GFP positive cells in the dentate gyrus ([3]; lentivirus injected adult mice) | BrdU incorporation in adult dentate gyrus ([3]; lentivirus injected, compared to control shRNA cells) |
| --- | --- | --- | --- | --- | --- | --- | --- | --- | --- | --- |
| Cn1cc(C2=C(c3ccc(Cl)cc3Cl)C(=O)NC2=O)c2ccccc21 [SB-216763] | normalized | can be rescued | suppressed | no longer exhibited a reduction in BrdU positive cells; also recorded: can be rescued | significantly increased the number of BrdU positive cells |  |  |  |  |  |
| DISC1 shRNA-1: shRNA targeting rat and mouse DISC1, SEQ ID NO:4, in pLentiLox 3.7 vector (GGCAAACACTGTGAAGTGC) |  |  |  |  |  | did not display increased anxiety | hyperlocomotion in response to novelty | greater immobility | no increase in active caspase 3 labeling | significant reduction in BrdU incorporation |
